Where two headings read alike, the source gives them in different places.
How the values were obtained:
[1] = tested on: HepG2 cells; assay: in vitro; assay type: cell-based; details: HepG2 or HepG2.117 cells, mean value, read-out: CC50 (μM, mean value)
Method in brief: (§1)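 Luminescent ATP quantitation served as the viability endpoint following a 3- or 4-day incubation with test compounds.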

[2] = tested on: HBV (HepG2.117 cell line, inducibly HBV producing); assay: Anti-HBV activity: intracellular HBV DNA by real-time PCR in HepG2.117 cells after 3 days of treatment; assay type: cell-based, hepatitis B virus
Method in brief: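 First, HBV replication is induced in HepG2.117 cells by doxycycline absence. Next, serially diluted compound is added for 3 days. Finally, intracellular HBV DNA is quantified by HBV-specific real-time PCR.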

[3] = in vitro; assay type: cell-based; details: human, HepG2 or HepG2.117 cells, ATPlite, mean value
Method in brief: as §1

[4] = ATPlite, 3-days incubation (not marked with *)
[5] = HepG2.117 cells, intracellular HBV DNA by real-time PCR, 3 days of treatment, mean value; read-out: EC50 (μM, mean value)
[6] = 3-days incubation (unmarked values), ATPlite
[7] = HepG2.117 cells, 3 days of treatment, intracellular HBV DNA by real-time PCR; mean value; read-out: EC50 (μM, mean value)
[8] = Hepatitis B virus, HepG2.117, 72 h, HepG2.117 cells, intracellular HBV DNA by real-time PCR, 3 days of treatment, mean value; read-out: EC50 (μM, mean value)
[9] = 3-days incubation (unmarked values)
[10] = Hepatitis B virus, HepG2.117, 72 h, HepG2.117 cells, 3 days of treatment, intracellular HBV DNA by real-time PCR; mean value; read-out: EC50 (μM, mean value)
[11] = 3-days incubation (not marked with *)

CNC(=O)c1ccc(-n2c(N[C@@H](C)c3ccccc3)nc3c(c2=O)C[C@@H](C)N(C(=O)c2ccc(Cl)c(Cl)c2)C3)c(Cl)c1 [Compound C386]
CC50 [1, 4]: > 50 µM | EC50 [2, 5]: 0.12 µM

CNC(=O)c1ccc(-n2c(NC(C)C)nc3c(c2=O)C[C@@H](C)N(C(=O)c2ccc(Cl)c(Cl)c2)C3)c(OC)c1 (single isomer, unassigned) [Compound C314b]
CC50 [1, 6]: > 50 µM | EC50 [2, 7]: 0.22 µM

CNC(=O)c1ccc(-n2c(NC(C)C)nc3c(c2=O)C[C@@H](C)N(C(=O)c2ccc(Cl)c(Cl)c2)C3)c(C(F)(F)F)c1 (single isomer, unassigned) [Compound C340b]
CC50 [1, 6]: 29.8 µM | EC50 [2, 7]: 0.39 µM

Cc1cc(-n2cccn2)ccc1-n1c(NC(C)C)nc2c(c1=O)C[C@@H](C)N(C(=O)c1ccc(Cl)c(Cl)c1)C2 (single isomer, unassigned) [Compound C308b]
CC50 [1, 6]: > 50 µM | EC50 [2, 7]: 0.16 µM

CC(C)Nc1nc2c(c(=O)n1-c1ccc(-c3ncc[nH]3)cc1Cl)C[C@@H](C)N(C(=O)c1ccc(Cl)c(Cl)c1)C2 (single isomer, unassigned) [Compound C393b]
CC50 [1, 4]: 31.7 µM | EC50 [2, 5]: 0.24 µM

CNC(=O)c1cnc(-n2c(N[C@@H](C)c3ccc(OC(F)(F)F)cc3)nc3c(c2=O)C[C@@H](C)N(C(=O)c2ccc(Cl)c(Cl)c2)C3)cn1 [Compound C617]
CC50 [1, 4]: > 50 µM | EC50 [2, 5]: 0.08 µM

CNC(=O)c1ccc(-n2c(NC(C)C)nc3c(c2=O)C[C@@H](C)N(C(=O)c2ccc(Cl)c(C(F)(F)F)c2)C3)c(C(F)F)c1 (single isomer, unassigned) [Compound C669b]
CC50 [1, 4]: > 50 µM | EC50 [2, 5]: 0.04 µM

CC(C)Nc1nc2c(c(=O)n1-c1ccc(S(C)(=O)=O)cc1)C[C@H](C)N(C(=O)c1ccc(Cl)c(Cl)c1)C2 [Compound C141, (6S)-7-(3,4-dichlorobenzoyl)-3-[4-(methanesulfonyl)phenyl]-6-methyl-2-[(propan-2-yl)amino]-5,6,7,8-tetrahydropyrido[3,4-d]pyrimidin-4(3H)-one]
CC50 [1, 6]: > 50 µM

COc1ccc(CNc2nc3c(c(=O)n2-c2ccccc2OC)C[C@H](C)N(C(=O)c2ccc(Cl)c(Cl)c2)C3)cc1 (single isomer, unassigned) [Compound C36Bb]
CC50 [1, 6]: > 50 µM | EC50 [2, 7]: > 50 µM

CNC(=O)c1ccc(-n2c(NCc3nc(-c4ccccc4)n[nH]3)nc3c(c2=O)C[C@@H](C)N(C(=O)c2ccc(Cl)c(Cl)c2)C3)cc1 [Compound C538]
CC50 [1, 4]: > 50 µM | EC50 [2, 5]: 20.6 µM

CNC(=O)c1ccc(-n2c(NC(C)C)nc3c(c2=O)C[C@@H](C)N(C(=O)c2ccc(Cl)c(Cl)c2)C3)c(C)c1 [Compound C300b, 4-[(6R)-7-(3,4-dichlorobenzoyl)-6-methyl-4-oxo-2-[(propan-2-yl)amino]-5,6,7,8-tetrahydropyrido[3,4-d]pyrimidin-3(4H)-yl]-N,3-dimethylbenzamide]
CC50 [1, 6]: > 50 µM | EC50 [2, 7]: 0.09 µM

Cc1cc(-n2cccn2)ccc1-n1c(NC(C)C)nc2c(c1=O)C[C@@H](C)N(C(=O)c1ccc(Cl)c(Cl)c1)C2 (atropisomer, axis not shown) [Compound C308a, (6R)-7-(3,4-dichlorobenzoyl)-6-methyl-3-[2-methyl-4-(1H-pyrazol-1-yl)phenyl]-2-[(propan-2-yl)amino]-5,6,7,8-tetrahydropyrido[3,4-d]pyrimidin-4(3H)-one]
CC50 [1, 6]: > 50 µM | EC50 [2, 7]: 0.11 µM

CC(C)Nc1nc2c(c(=O)n1-c1ccc(-c3ncc[nH]3)cc1Cl)C[C@@H](C)N(C(=O)c1ccc(Cl)c(Cl)c1)C2 [Compound C393]
CC50 [1, 4]: 24.1 µM | EC50 [2, 8]: 0.17 µM

CNC(=O)c1ccc(-n2c(NC(C)C)nc3c(c2=O)C[C@@H](C)N(C(=O)c2ccc(Cl)c(C(F)(F)F)c2)C3)c(C2CC2)c1 (single isomer, unassigned) [Compound C661b]
CC50 [1, 4]: 25.4 µM | EC50 [2, 5]: 0.06 µM

CNC(=O)c1ccc(-n2c(N3CC4CC3C4)nc3c(c2=O)C[C@@H](C)N(C(=O)c2ccc(Cl)c(C(F)(F)F)c2)C3)c(Cl)c1 (single isomer, unassigned) [Compound C701b]
CC50 ([1]; 3-days incubation (unmarked values), ATPlite viability): 25.4 µM | EC50 [2, 7]: 0.03 µM

Cc1cc(-c2ncc[nH]2)ccc1-n1c(NC(C)C)nc2c(c1=O)C[C@@H](C)N(C(=O)c1ccc(Cl)c(Cl)c1)C2 (single isomer, unassigned) [Compound C399a]
CC50 [1, 4]: 27.7 µM | EC50 [2, 5]: 0.14 µM

CNC(=O)c1ccc(-n2c(NC(C)C)nc3c(c2=O)C[C@@H](C)N(C(=O)c2ccc(Cl)c(Cl)c2)C3)c(C(C)C)c1 (single isomer, unassigned) [Compound C420a]
CC50 [1, 4]: 21.7 µM | EC50 [2, 5]: 0.72 µM

CNC(=O)c1ccc(-n2c(NC(C)C)nc3c(c2=O)C[C@@H](C)N(C(=O)c2ccc(Cl)c(C(F)(F)F)c2)C3)c(OC)c1 (single isomer, unassigned) [Compound C643b]
CC50 [1, 4]: > 50 µM | EC50 [2, 5]: 0.05 µM

Cc1cc(-c2ncc[nH]2)ccc1-n1c(NC(C)C)nc2c(c1=O)C[C@@H](C)N(C(=O)c1ccc(Cl)c(Cl)c1)C2 (single isomer, unassigned) [Compound C399b]
CC50 [1, 4]: 27 µM | EC50 [2, 5]: 0.16 µM

CNC(=O)c1ccc(-n2c(NC(C)C)nc3c(c2=O)C[C@@H](C)N(C(=O)c2ccc(Cl)c(Cl)c2)C3)c(C(C)C)c1 (single isomer, unassigned) [Compound C420b]
CC50 [1, 4]: 23.5 µM | EC50 [2, 5]: 0.35 µM

COc1ccccc1-n1c(N[C@H](C)C(F)(F)F)nc2c(c1=O)CCN(C(=O)c1ccc(Cl)c(Cl)c1)C2 (single isomer, unassigned) [Compound C101b]
CC50 [1, 6]: 33.2 µM | EC50 [2, 7]: 9.59 µM

COc1ccc(CNc2nc3c(c(=O)[nH]2)CCN(C(=O)c2ccc(Cl)c(C#N)c2)C3)cc1 [Compound C103, 2-chloro-5-[2-{[(4-methoxyphenyl)methyl]amino}-4-oxo-4,5,6,8-tetrahydropyrido[3,4-d]pyrimidine-7(3H)-carbonyl]benzonitrile]
CC50 at 3 days [3, 9]: > 50 µM | EC50 [2, 10]: 18.3 µM

CNC(=O)c1ccc(-n2c(NC(C)C)nc3c(c2=O)C[C@@H](C)N(C(=O)c2cn4ccccc4n2)C3)cc1 [Compound C497]
CC50 at 3 days [3, 11]: > 50 µM | EC50 [2, 8]: 11.8 µM

COc1cccnc1-c1ccc(-n2c(NC(C)C)nc3c(c2=O)CCN(C(=O)c2ccc(Cl)c(Cl)c2)C3)cc1 [Compound C172, 7-(3,4-dichlorobenzoyl)-3-[4-(3-methoxypyridin-2-yl)phenyl]-2-[(propan-2-yl)amino]-5,6,7,8-tetrahydropyrido[3,4-d]pyrimidin-4(3H)-one]
CC50 at 3 days [3, 9]: 5.3 µM | EC50 [2, 10]: 1.66 µM

CNC(=O)c1cc(-n2c(NC(C)C)nc3c(c2=O)C[C@@H](C)N(C(=O)c2ccc(Cl)c(C(F)(F)F)c2)C3)n(C)n1 [Compound C645]
CC50 at 3 days [3, 11]: > 50 µM | EC50 [2, 8]: 0.04 µM

CC(C)Nc1nc2c(c(=O)n1-c1ccc(S(C)(=O)=O)cc1)CCN(C(=O)c1cc3cc(F)ccc3[nH]1)C2 [Compound C136, 7-(5-fluoro-1H-indole-2-carbonyl)-3-[4-(methanesulfonyl)phenyl]-2-[(propan-2-yl)amino]-5,6,7,8-tetrahydropyrido[3,4-d]pyrimidin-4(3H)-one]
CC50 at 3 days [3, 9]: > 50 µM | EC50 [2, 10]: 0.24 µM

COc1ccccc1-n1c(N2CCCC2)nc2c(c1=O)CCN(C(=O)c1ccc(Cl)c(Cl)c1)C2 [Compound C39, 7-(3,4-dichlorobenzoyl)-3-(2-methoxyphenyl)-2-(pyrrolidin-1-yl)-5,6,7,8-tetrahydropyrido[3,4-d]pyrimidin-4(3H)-one]
CC50 at 3 days [3, 9]: > 50 µM | EC50 [2, 10]: 9.21 µM

COc1ccc(CNc2nc3c(c(=O)n2-c2ccn[nH]2)CCN(C(=O)c2ccc(Cl)c(Cl)c2)C3)cc1 [Compound C107, 7-(3,4-dichlorobenzoyl)-2-{[(4-methoxyphenyl)methyl]amino}-3-(1H-pyrazol-5-yl)-5,6,7,8-tetrahydropyrido[3,4-d]pyrimidin-4(3H)-one]
CC50 at 3 days [3, 9]: 22.6 µM | EC50 [2, 10]: 1.78 µM

CNC1CCN(c2ccc(-n3c(NC(C)C)nc4c(c3=O)CCN(C(=O)c3ccc(Cl)c(Cl)c3)C4)cc2)C1 (stereo not shown) [Compound C180, 7-(3,4-dichlorobenzoyl)-3-{4-[3-(methylamino)pyrrolidin-1-yl]phenyl}-2-[(propan-2-yl)amino]-5,6,7,8-tetrahydropyrido[3,4-d]pyrimidin-4(3H)-one]
CC50 at 3 days [3, 9]: 5.6 µM | EC50 [2, 10]: 0.72 µM

CNC(=O)c1ccc(-n2c(NC(C)C)nc3c(c2=O)C[C@@H](C)N(C(=O)c2ccc(OC(F)F)c(Cl)c2)C3)cc1 [Compound C475]
CC50 at 3 days [3, 11]: > 50 µM | EC50 [2, 8]: 0.07 µM

CC(C)Nc1nc2c(c(=O)n1-c1cccc3c1CNC3=O)C[C@@H](C)N(C(=O)c1ccc(Cl)c(Cl)c1)C2 [Compound C323, (6R)-7-(3,4-dichlorobenzoyl)-6-methyl-3-(1-oxo-2,3-dihydro-1H-isoindol-4-yl)-2-[(propan-2-yl)amino]-5,6,7,8-tetrahydropyrido[3,4-d]pyrimidin-4(3H)-one]
CC50 at 3 days [3, 9]: > 50 µM | EC50 [2, 10]: 0.35 µM

Source: patent US20230091047A1 (priority 2019, published 2023)
